Measurements: article PMC10298284, “Synthesis and hLDH Inhibitory Activity of Analogues to Natural Products with 2,8-Dioxabicyclo[3.3.1]nonane Scaffold” (International Journal of Molecular Sciences, 2023)
Several values for one entry are separate records, joined by “and”; a condition that tells them apart may be missing. Equal values may be shown once. Read-outs that look alike come from different tables or passages of the source.

Legend:
recombinant human LDHA = target: T1, recombinant human LDHA (Homo sapiens, UniProt P00338); assay: hLDHA enzymatic activity assay (kinetic spectrofluorimetric, β-NADH fluorescence decrease); type: biochemical; conditions: for IC50: mean ± SD of n = 3 replicates; for Selectivity Rate (IC50 hLDHB/hLDHA): ratio IC50 hLDHB / IC50 hLDHA
T1 construct: purchased Abcam
Description: (§1) Briefly, the decrease in the coenzyme β-NADH fluorescence (λemission = 460 nm) was measured for 10 min, at different concentration of inhibitors, and its slope was compared with the one obtained when there were not inhibitors added (100% enzymatic activity).
The enzymatic assay was conducted on 96-well microplates and the decrease in the β-NADH fluorescence (λexcitation = 340 nm; λemission = 460 nm) was detected in a TECAN Infinite 200 Pro M Plex fluorescent plate reader (Tecan Instrument, Inc.) at 28 °C. The activity was determined according to our previously described protocol. The final volume in each well was set to 200 µL using 100 mM potassium phosphate buffer, 0.041 units/mL LDHA, 155 µM β-NADH, 1 mM pyruvate (saturated conditions), and DMSO solutions (5%, v/v) of pure compounds at concentrations in the range of 1–600 µM. The addition of pyruvate allowed the beginning of the reaction and fluorescence was registered every 60 s during 10 min. A lineal time interval was selected to calculate the slope at every single concentration. […] The slope obtained at each concentration was compared to the one obtained for the 100% enzymatic activity control to determine the corresponding enzymatic activity. A nonlinear regression analysis in GraphPad Prism version 9.00 for Windows (GraphPad Software, La Jolla, CA, USA) was used for dose response curve, fitting of logarithm of inhibitor concentration vs. normalized enzymatic activity, to calculate IC50 values (Supplementary Material section). All measurements were made in triplicate and data were expressed as the mean ± SD.

recombinant human LDHB = target: T2, recombinant human LDHB (Homo sapiens, UniProt P07195); assay: hLDHB enzymatic activity assay (same fluorimetric protocol); type: biochemical; conditions: mean ± SD of n = 3 replicates; read-out: hLDHB IC50
T2 construct: purchased Abcam
T2 sequence (P07195 whole entry): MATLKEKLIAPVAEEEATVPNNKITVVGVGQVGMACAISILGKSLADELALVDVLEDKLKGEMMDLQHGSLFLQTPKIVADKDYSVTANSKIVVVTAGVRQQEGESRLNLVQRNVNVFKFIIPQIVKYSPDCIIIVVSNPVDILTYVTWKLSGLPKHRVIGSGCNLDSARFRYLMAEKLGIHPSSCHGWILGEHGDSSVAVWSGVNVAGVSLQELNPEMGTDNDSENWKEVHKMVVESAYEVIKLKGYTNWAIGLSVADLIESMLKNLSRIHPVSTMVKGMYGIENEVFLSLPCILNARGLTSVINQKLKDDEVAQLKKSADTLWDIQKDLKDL
Description: as §1
The ability of the synthesized compounds to inhibit the hLDHB enzyme was measured using recombinant human LDHB (95%, specific activity >300 units/mg and concentration of 1.0 mg/mL, Abcam, Cambridge, UK) following the same fluorimetric protocol described in Section 3.4.

[1] = 1 mM pyruvate, 155 µM β-NADH, pH 7.3, 28 °C, read-out: hLDHA IC50
[2] = supplementary dose response curves, µM only on the axis label, read-out: IC50 (hLDHA inhibition curve)

Compound	IC50 (recombinant human LDHA; [1])	Selectivity Rate (IC50 hLDHB/hLDHA) (recombinant human LDHA)	IC50 (recombinant human LDHA; [2]) [µM]	IC50 (recombinant human LDHB) [µM]	melting point	Selectivity Rate (IC50 hLDHB/hLDHA) (recombinant human LDHA; listed as 65a)	Selectivity Rate (IC50 hLDHB/hLDHA) (recombinant human LDHA; listed as 67a)	Selectivity Rate (IC50 hLDHB/hLDHA) (recombinant human LDHA; listed as 50)
COc1ccc(C23CC(c4cc([N+](=O)[O-])ccc4O2)c2c(O)cc(O)cc2O3)cc1OC (racemic) [(±)-43, 2-(3′,4′-Dimethoxyphenyl)-6-nitrochromane-(4→4″, 2→O-5″)-phloroglucinol]	< 10 µM and 8.2 µM	8.0	8.2 ± 0.2	65.3 ± 2.1	193 to 195 °C			
COc1ccc(C23CC(c4cc(Cl)ccc4O2)c2c(O)cc(O)cc2O3)cc1OC (racemic) [(±)-44, 2-(3′,4′-Dimethoxyphenyl)-6-chlorochromane-(4→4″, 2→O-5″)-phloroglucinol]					257 to 259 °C			
O=c1oc2ccccc2c2c1C1CC(c3ccc(O)c(O)c3)(Oc3ccc([N+](=O)[O-])cc31)O2 (racemic) [(±)-46, 2-(3′,4′-Dihydroxyphenyl)-6-nitrochromane-(4→3″, 2→O-4″)-4″-hydroxycoumarin]					128 to 130 °C (dec.)			
O=c1oc2ccccc2c2c1C1CC(c3ccc(O)c(O)c3)(Oc3ccc(Cl)cc31)O2 (racemic) [(±)-47, 2-(3′,4′-Dihydroxyphenyl)-6-chlorochromane-(4→3″, 2→O-4″)-4″-hydroxycoumarin]	< 10 µM and 9.1 µM	1.6	9.1 ± 0.5	14.3 ± 0.9	98 to 100 °C (dec.)			
COc1ccc(C23CC(c4cc([N+](=O)[O-])ccc4O2)c2c(c4ccccc4oc2=O)O3)cc1OC (racemic) [(±)-49, 2-(3′,4′-Dimethoxyphenyl)-6-nitrochromane-(4→3″, 2→O-4″)-4″-hydroxycoumarin]	25.7 ± 0.3 µM	8.3	25.7 ± 0.3	212.3 ± 1.4	142 to 144 °C			
COc1ccc(C23CC(c4cc(Cl)ccc4O2)c2c(c4ccccc4oc2=O)O3)cc1OC (racemic) [(±)-50, 2-(3′,4′-Dimethoxyphenyl)-6-chlorochromane-(4→3″, 2→O-4″)-4″-hydroxycoumarin]	13.2 ± 0.8 µM	>22.7	13.2 ± 0.8	> 300	130 to 133 °C			> 10
O=c1oc2ccccc2c2c1C1CC(c3ccc(O)cc3)(Oc3ccc([N+](=O)[O-])cc31)O2 (racemic) [(±)-52, 2-(4′-Hydroxyphenyl)-6-nitrochromane-(4→3″, 2→O-4″)-4″-hydroxycoumarin]	36.9 ± 1.2 µM	1.8	36.9 ± 1.2		275 to 278 °C			
O=c1oc2ccccc2c2c1C1CC(c3ccc(O)cc3)(Oc3ccc(Cl)cc31)O2 (racemic) [(±)-53, 2-(4′-Hydroxyphenyl)-6-chlorochromane-(4→3″, 2→O-4″)-4″-hydroxycoumarin]					250 to 252 °C (dec.)			
O=C1C2=C(C(=O)c3ccccc31)C1CC(c3ccc(O)c(O)c3)(O2)Oc2ccccc21 (racemic) [(±)-54, 2-(3′,4′-Dihydroxyphenyl)-chromane-(4→3″, 2→O-2″)-2″-hydroxy-1″,4″-naphthoquinone]					190 to 192 °C (dec.)			
O=C1C2=C(C(=O)c3ccccc31)C1CC(c3ccc(O)c(O)c3)(O2)Oc2ccc([N+](=O)[O-])cc21 (racemic) [(±)-55, 2-(3′.4′-Dihydroxyphenyl)-6-nitrochromane-(4→3″, 2→O-2″)-2″-hydroxy-1″,4″-naphthoquinone]	27.4 ± 0.6 µM	1.1	27.4 ± 0.6		247 to 250 °C			
O=C1C2=C(C(=O)c3ccccc31)C1CC(c3ccc(O)c(O)c3)(O2)Oc2ccc(Cl)cc21 (racemic) [(±)-56, 2-(3′,4′-Dihydroxyphenyl)-6-chlorochromane-(4→3″, 2→O-2″)-2″-hydroxy-1″,4″-naphthoquinone]	13.7 ± 0.6 µM	8.7	13.7 ± 0.6	119 ± 2.7	300 to 302 °C (dec.)			
O=C1C2=C(C(=O)c3ccccc31)C1CC(c3ccc(O)cc3)(O2)Oc2ccc([N+](=O)[O-])cc21 (racemic) [(±)-60, 2-(4′-Hydroxyphenyl)-6-nitrochromane-(4→3″, 2→O-2″)-2″-hydroxy-1″,4″-naphthoquinone]					270 to 273 °C (dec.)			
O=C1C2=C(C(=O)c3ccccc31)C1CC(c3ccc(O)cc3)(O2)Oc2ccc(Cl)cc21 (racemic) [(±)-61, 2-(4′-Hydroxyphenyl)-6-chlorochromane-(4→3″, 2→O-2″)-2″-hydroxy-1″,4″-naphthoquinone]					249 to 251 °C			

Second part, led by results:

IC50 (recombinant human LDHA; [1])	Selectivity Rate (IC50 hLDHB/hLDHA) (recombinant human LDHA)	IC50 (recombinant human LDHA; [2]) [µM]	IC50 (recombinant human LDHB) [µM]	melting point	Selectivity Rate (IC50 hLDHB/hLDHA) (recombinant human LDHA; listed as 65a)	Selectivity Rate (IC50 hLDHB/hLDHA) (recombinant human LDHA; listed as 67a)	Compound	Selectivity Rate (IC50 hLDHB/hLDHA) (recombinant human LDHA; listed as 50)
154 ± 11.3 µM	1.9	154 ± 11.3	293.1 ± 2.4	77 to 80 °C (dec.)			COc1ccc(C23CC(c4ccccc4O2)c2c(O)cc(O)cc2O3)cc1OC (racemic) [(±)-42, 2-(3′,4′-Dimethoxyphenyl)-chromane-(4→4″, 2→O-5″)-phloroglucinol]	
				148 to 150 °C			COc1ccc(C23CC(C4=C(O2)C(=O)c2ccccc2C4=O)c2cc([N+](=O)[O-])ccc2O3)cc1OC (racemic) [(±)-58, 2-(3′.4′-Dimethoxyphenyl)-6-nitrochromane-(4→3″, 2→O-2″)-2″-hydroxy-1″,4″-naphthoquinone]	
				124 to 127 °C			COc1ccc(C23CC(C4=C(O2)C(=O)c2ccccc2C4=O)c2cc(Cl)ccc2O3)cc1OC (racemic) [(±)-59, 2-(3′,4′-Dimethoxyphenyl)-6-chlorochromane-(4→3″, 2→O-2″)-2″-hydroxy-1″,4″-naphthoquinone]	
				110 to 112 °C			COc1ccc(C23CC(C4=C(CC(c5ccc(Cl)cc5)OC4=O)O2)c2ccccc2O3)cc1OC (racemic) [(±)-63a, 2-(3′,4′-Dimethoxyphenyl)-chromane-(4→3″, 2→O-4″)-6″-(4‴-chlorophenyl)-4″-hydroxy-5″,6″-dihydro-2H-pyran-2″-one]	
52.8 ± 5.3 µM	>5.7	52.8 ± 5.3	> 300	172 to 175 °C			COc1ccc(C2CC3=C(C(=O)O2)C2CC(c4ccc(OC)c(OC)c4)(O3)Oc3ccccc32)cc1 (racemic) [(±)-64a, 2-(3′,4′-Dimethoxyphenyl)-chromane-(4→3″, 2→O-4″)-4″-hydroxy-6″-(4‴-methoxyphenyl)-5″,6″-dihydro-2H-pyran-2″-one]	
12.5 ± 1.1 µM	21.5	12.5 ± 1.1	269 ± 11	198 to 200 °C	> 10		COc1ccc(C23CC(C4=C(CC(c5ccccc5)OC4=O)O2)c2cc([N+](=O)[O-])ccc2O3)cc1OC (racemic) [(±)-65a, 2-(3′,4′-Dimethoxyphenyl)-6-nitrochromane-(4→3″, 2→O-4″)-4″-hydroxy-6″-phenyl-5″,6″-dihydro-2H-pyran-2″-one]	
< 10 µM and 5.8 µM	4.8	5.8	28.1 ± 0.4	194 to 196 °C			COc1ccc(C23CC(C4=C(CC(c5ccc(Cl)cc5)OC4=O)O2)c2cc([N+](=O)[O-])ccc2O3)cc1OC (racemic) [(±)-66a, 2-(3′,4′-Dimethoxyphenyl)-6-nitrochromane-(4→3″, 2→O-4″)-6″-(4‴-chlorophenyl)-4″-hydroxy-5″,6″-dihydro-2H-pyran-2″-one]	
14.8 ± 0.6 µM	>20.3	14.8 ± 0.6	> 300	162 to 164 °C		> 10	COc1ccc(C2CC3=C(C(=O)O2)C2CC(c4ccc(OC)c(OC)c4)(O3)Oc3ccc([N+](=O)[O-])cc32)cc1 (racemic) [(±)-67a, 2-(3′,4′-Dimethoxyphenyl)-6-nitrochromane-(4→3″, 2→O-4″)-4″-hydroxy-6″-(4‴-methoxyphenyl)-5″,6″-dihydro-2H-pyran-2″-one]	
				106 to 108 °C			COc1ccc(C23CC(C4=C(CC(c5ccccc5)OC4=O)O2)c2cc(Cl)ccc2O3)cc1OC (racemic) [(±)-68a, 2-(3′,4′-Dimethoxyphenyl)-6-chlorochromane-(4→3″, 2→O-4″)-4″-hydroxy-6″-phenyl-5″,6″-dihydro-2H-pyran-2″-one]	
20 ± 0.6 µM	7.1	20 ± 0.6	141 ± 2.5	172 to 175 °C			COc1ccc(C23CC(C4=C(CC(c5ccc(Cl)cc5)OC4=O)O2)c2cc(Cl)ccc2O3)cc1OC (racemic) [(±)-69a, 2-(3′,4′-Dimethoxyphenyl)-6-chlorochromane-(4→3″, 2→O-4″)-6″-(4‴-chlorophenyl)-4″-hydroxy-5″,6″-dihydro-2H-pyran-2″-one]	
